Source: US10052320B2, “Substituted quinoxalines as FGFR kinase inhibitors” (ASTEX THERAPEUTICS LIMITED, priority 2011, dated 2018)

Legend:
[1] = target: FGFR3 (h) (Homo sapiens, UniProt P22607); test: FGFR3 (enzymatic assay), TR-FRET; assay type: biochemical; settings: read-out: FGFR 3 pIC50 (converted)
Protocol: In a final reaction volume of 30 μL, FGFR3 (h) (40 ng/ml) was incubated with 50 mM HEPES pH 7.5, 6 mM MnCl2, 1 mM DTT, 0.1 mM Na3VO4, 0.01% Triton-X-100, 500 nM Btn-Flt3 and 25 μM ATP in the presence of compound (1% DMSO final). […] Time-Resolved Fluorescence Resonance Energy Transfer (TR-FRET) signal (ex340 nm. Em 620 nm, em 655 nm) was measured afterwards and results are expressed in RFU (Relative Fluorescence Units).

[2] = target: Ba/F3-KDR-transfected cells (Homo sapiens, UniProt P35968); test: Ba/F3-KDR (minus IL3) cellular proliferation assay, Alamar Blue; assay type: cell-based; settings: minus IL3
How it was run: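 Readout is resazurin (Alamar Blue) fluorescence, ex 540/em 590 nm, after 4 h, following 24 h compound exposure of KDR-transfected Ba/F3 cells at 37° C, 5% CO2 in 10% FBS RPMI. Plus-IL3 arm adds 10 ng/ml murine IL3; otherwise same conditions.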

[3] = target: Ba/F3-FGFR4-transfected cells (Homo sapiens, UniProt P22455); test: Ba/F3-FGFR4 cellular proliferation assay, Alamar Blue; assay type: cell-based
Protocol: Ba/F3-FGFR4 (Cellular Proliferation Assay)
In a 384 well plate, 100 nl of compound dilution in DMSO was sprayed before adding 50 μl cell culture medium (phenol red free RPMI-1640, 10% FBS, 2 mM L-Glutamine and 50 μg/ml Gentamycin) containing 20000 cells per well of Ba/F3-FGFR4-transfected cells. Cells were put in an incubator at 37° C. and 5% CO2. After 24 hours, 10 μl of Alamar Blue solution (0.5 mM K3Fe(CN)6, 0.5 mM KaFe(CN)6, 0.15 mM Resazurin and 100 mM Phosphate Buffer) was added to the wells, incubated for 4 hours at 37° C. and 5% CO2 before RFU's (Relative Fluorescence Units) (ex. 540 nm., em. 590 nm.) were measured in a flurorescence plate reader.

Chain of Ba/F3-FGFR4-transfected cells (P22455 whole entry, change not shown): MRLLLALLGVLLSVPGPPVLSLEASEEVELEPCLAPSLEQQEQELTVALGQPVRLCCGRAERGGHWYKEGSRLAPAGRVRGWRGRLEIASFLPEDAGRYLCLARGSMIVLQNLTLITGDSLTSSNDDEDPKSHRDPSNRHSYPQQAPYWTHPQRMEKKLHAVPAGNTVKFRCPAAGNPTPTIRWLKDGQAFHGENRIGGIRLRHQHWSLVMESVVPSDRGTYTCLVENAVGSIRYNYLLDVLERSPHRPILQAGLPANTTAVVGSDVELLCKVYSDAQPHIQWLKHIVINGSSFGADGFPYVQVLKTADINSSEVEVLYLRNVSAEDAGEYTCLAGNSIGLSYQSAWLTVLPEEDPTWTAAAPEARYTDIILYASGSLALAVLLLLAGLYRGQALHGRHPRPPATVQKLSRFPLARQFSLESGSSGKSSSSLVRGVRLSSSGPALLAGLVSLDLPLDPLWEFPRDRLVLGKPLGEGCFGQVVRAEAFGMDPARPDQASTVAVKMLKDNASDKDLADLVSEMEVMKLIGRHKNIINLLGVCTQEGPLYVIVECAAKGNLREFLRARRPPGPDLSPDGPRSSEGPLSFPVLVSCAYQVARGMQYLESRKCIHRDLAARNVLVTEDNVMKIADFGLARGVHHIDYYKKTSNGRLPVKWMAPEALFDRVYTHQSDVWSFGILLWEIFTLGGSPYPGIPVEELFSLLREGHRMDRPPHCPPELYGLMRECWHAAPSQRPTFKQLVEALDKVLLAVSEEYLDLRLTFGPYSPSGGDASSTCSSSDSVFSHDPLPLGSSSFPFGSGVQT
Chain of Ba/F3-KDR-transfected cells (P35968 whole entry, change not shown): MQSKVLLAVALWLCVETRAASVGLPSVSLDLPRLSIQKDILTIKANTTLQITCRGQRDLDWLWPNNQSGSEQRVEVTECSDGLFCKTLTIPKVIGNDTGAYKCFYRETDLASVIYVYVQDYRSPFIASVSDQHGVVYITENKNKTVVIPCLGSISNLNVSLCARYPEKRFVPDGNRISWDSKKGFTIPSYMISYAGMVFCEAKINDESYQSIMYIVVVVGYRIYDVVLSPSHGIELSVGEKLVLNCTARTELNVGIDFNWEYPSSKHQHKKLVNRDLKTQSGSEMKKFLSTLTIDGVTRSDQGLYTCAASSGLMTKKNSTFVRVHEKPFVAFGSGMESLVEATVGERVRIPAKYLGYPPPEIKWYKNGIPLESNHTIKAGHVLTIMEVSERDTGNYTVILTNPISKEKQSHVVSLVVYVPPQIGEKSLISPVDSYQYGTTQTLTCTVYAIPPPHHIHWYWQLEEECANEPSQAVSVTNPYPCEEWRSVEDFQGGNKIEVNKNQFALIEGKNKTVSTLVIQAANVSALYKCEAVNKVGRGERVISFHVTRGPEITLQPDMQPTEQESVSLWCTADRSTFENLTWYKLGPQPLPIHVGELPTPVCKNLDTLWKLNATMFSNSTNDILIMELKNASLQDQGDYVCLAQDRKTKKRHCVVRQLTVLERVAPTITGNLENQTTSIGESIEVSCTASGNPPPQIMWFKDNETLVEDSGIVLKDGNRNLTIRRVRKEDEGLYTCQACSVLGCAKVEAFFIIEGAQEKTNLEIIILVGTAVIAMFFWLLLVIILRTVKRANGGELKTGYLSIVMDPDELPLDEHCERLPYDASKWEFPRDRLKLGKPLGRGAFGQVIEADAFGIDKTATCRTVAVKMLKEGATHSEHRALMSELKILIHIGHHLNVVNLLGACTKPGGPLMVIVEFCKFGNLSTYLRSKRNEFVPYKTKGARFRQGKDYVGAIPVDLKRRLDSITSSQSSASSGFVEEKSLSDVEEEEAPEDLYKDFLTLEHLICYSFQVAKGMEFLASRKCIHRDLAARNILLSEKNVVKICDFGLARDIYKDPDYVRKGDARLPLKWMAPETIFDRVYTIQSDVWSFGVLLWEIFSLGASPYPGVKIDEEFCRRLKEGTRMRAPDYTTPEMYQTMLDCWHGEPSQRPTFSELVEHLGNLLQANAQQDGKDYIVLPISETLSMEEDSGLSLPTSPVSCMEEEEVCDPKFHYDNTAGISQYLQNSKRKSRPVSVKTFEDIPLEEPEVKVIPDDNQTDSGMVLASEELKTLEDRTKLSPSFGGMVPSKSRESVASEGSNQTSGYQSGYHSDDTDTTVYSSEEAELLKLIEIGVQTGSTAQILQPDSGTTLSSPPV
Chain of FGFR3 (h) (P22607 23-806): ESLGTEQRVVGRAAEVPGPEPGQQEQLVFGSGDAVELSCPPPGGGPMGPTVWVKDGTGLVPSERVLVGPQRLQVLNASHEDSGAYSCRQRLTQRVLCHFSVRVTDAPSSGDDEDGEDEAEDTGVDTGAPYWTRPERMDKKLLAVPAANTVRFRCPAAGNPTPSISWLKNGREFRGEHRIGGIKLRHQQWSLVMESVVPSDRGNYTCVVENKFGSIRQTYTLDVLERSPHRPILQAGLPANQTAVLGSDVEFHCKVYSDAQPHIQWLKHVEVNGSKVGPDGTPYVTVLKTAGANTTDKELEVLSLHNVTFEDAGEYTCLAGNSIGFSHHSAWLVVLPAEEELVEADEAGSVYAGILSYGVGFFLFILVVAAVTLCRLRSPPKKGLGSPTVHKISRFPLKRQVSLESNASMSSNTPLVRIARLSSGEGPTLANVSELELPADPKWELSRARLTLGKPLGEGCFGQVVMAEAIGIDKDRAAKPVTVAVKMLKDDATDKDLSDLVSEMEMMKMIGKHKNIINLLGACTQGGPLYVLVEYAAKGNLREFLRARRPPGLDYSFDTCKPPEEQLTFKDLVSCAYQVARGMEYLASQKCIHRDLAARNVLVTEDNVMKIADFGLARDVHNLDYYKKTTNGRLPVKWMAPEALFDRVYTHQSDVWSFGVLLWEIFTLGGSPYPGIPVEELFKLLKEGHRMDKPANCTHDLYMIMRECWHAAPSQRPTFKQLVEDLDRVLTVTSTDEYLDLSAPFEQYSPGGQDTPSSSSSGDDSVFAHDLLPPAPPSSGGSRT

COc1cc(OC)cc(N(CCCNCCCO)c2ccc3ncc(-c4ccnc(C(=O)NCCCCN)c4)nc3c2)c1 [Compound 132]
IC50 [1]: 18.6 nM
BAF3-KDR (MIN IL3) 384 well pIC50 [2]: 5.04
BAF3-FGFR4 pIC50 [3]: 5.6

COc1cc(OC)cc(N(CCCO)c2ccc3ncc(-c4ccnc(-c5ccnc(Cl)c5)c4)nc3c2)c1 [Compound 133]
IC50 [1]: 50.1 nM
BAF3-KDR (MIN IL3) 384 well pIC50 [2]: <5
BAF3-FGFR4 pIC50 [3]: <5

COc1cc(OC)cc(N(CCCO)c2ccc3ncc(-c4cnc(N5CCN(C)CC5)c(C)c4)nc3c2)c1 [Compound 135]
IC50 [1]: 2.45 nM
BAF3-KDR (MIN IL3) 384 well pIC50 [2]: 5.33
BAF3-FGFR4 pIC50 [3]: 6.1

COc1cc(OC)cc(N(CCCO)c2ccc3ncc(-c4ccnc(Cl)c4)nc3c2)c1 [Compound 136]
IC50 [1]: 10.2 nM
BAF3-KDR (MIN IL3) 384 well pIC50 [2]: <5
BAF3-FGFR4 pIC50 [3]: <5

COc1cc(OC)cc(N(CCCNC(C)C)c2ccc3ncc(-c4ccnc(NC(=O)OC(C)(C)C)c4)nc3c2)c1 [Compound 137]
IC50 [1]: 8.51 nM
BAF3-KDR (MIN IL3) 384 well pIC50 [2]: 5.67
BAF3-FGFR4 pIC50 [3]: 6.1

COc1cc(OC)cc(N(CCO)c2ccc3ncc(-c4ccnc(C(=O)NCCCCCN)c4)nc3c2)c1 [Compound 138]
IC50 [1]: 16.2 nM
BAF3-KDR (MIN IL3) 384 well pIC50 [2]: <5
BAF3-FGFR4 pIC50 [3]: 5.1

COc1cc(OC)cc(N(CCO)c2ccc3ncc(-c4ccnc(C(=O)NCCCCCO)c4)nc3c2)c1 [Compound 139]
IC50 [1]: 11.5 nM
BAF3-KDR (MIN IL3) 384 well pIC50 [2]: <5
BAF3-FGFR4 pIC50 [3]: <5

COc1cc(OC)cc(N(CCCO)c2ccc3ncc(-c4ccnc(F)c4)nc3c2)c1 [Compound 142]
IC50 [1]: 7.41 nM
BAF3-KDR (MIN IL3) 384 well pIC50 [2]: <5
BAF3-FGFR4 pIC50 [3]: 5.6

COc1cc(OC)cc(N(CCCNC(C)C)c2ccc3ncc(-c4ccnc(N)c4)nc3c2)c1 [Compound 143]
IC50 [1]: 2.51 nM
BAF3-KDR (MIN IL3) 384 well pIC50 [2]: 5.33
BAF3-FGFR4 pIC50 [3]: 6.9

COc1cc(OC)cc(N(CCCNCC(F)(F)F)c2ccc3ncc(-c4ccnc(F)c4)nc3c2)c1 [Compound 144]
IC50 [1]: 56.2 nM
BAF3-KDR (MIN IL3) 384 well pIC50 [2]: <5
BAF3-FGFR4 pIC50 [3]: <5

COc1cc(OC)cc(N(CCCNCC(F)(F)F)c2ccc3ncc(-c4ccnc(Cl)c4)nc3c2)c1 [Compound 145]
IC50 [1]: 97.7 nM
BAF3-KDR (MIN IL3) 384 well pIC50 [2]: <5
BAF3-FGFR4 pIC50 [3]: <5.35

COc1cc(OC)cc(N(CCNC(C)C)c2ccc3ncc(-c4ccnc(C(=O)NCCCN)c4)nc3c2)c1 [Compound 146]
IC50 [1]: 12.3 nM
BAF3-KDR (MIN IL3) 384 well pIC50 [2]: <5
BAF3-FGFR4 pIC50 [3]: 6.3

COc1cc(OC)cc(N(CCCNCC(F)(F)F)c2ccc3ncc(-c4ccnc(C(=O)NCCCN)c4)nc3c2)c1 [Compound 148]
IC50 [1]: 61.7 nM
BAF3-KDR (MIN IL3) 384 well pIC50 [2]: <5
BAF3-FGFR4 pIC50 [3]: <5

COc1cc(OC)cc(N(CCCO)c2ccc3ncc(-c4cccnc4F)nc3c2)c1 [Compound 149]
IC50 [1]: 35.5 nM
BAF3-KDR (MIN IL3) 384 well pIC50 [2]: <5
BAF3-FGFR4 pIC50 [3]: 5.6

COc1cc(OC)cc(N(CCCNCC(F)(F)F)c2ccc3ncc(-c4ccnc(C(=O)NCCCCCO)c4)nc3c2)c1 [Compound 150]
IC50 [1]: 49 nM
BAF3-KDR (MIN IL3) 384 well pIC50 [2]: <5
BAF3-FGFR4 pIC50 [3]: ~5.0

COc1cc(OC)cc(N(CCO)c2ccc3ncc(-c4ccccc4CCO)nc3c2)c1 [Compound 151]
IC50 [1]: 200 nM
BAF3-KDR (MIN IL3) 384 well pIC50 [2]: <5
BAF3-FGFR4 pIC50 [3]: <5

COc1cc(OC)cc(N(CCO)c2ccc3ncc(-c4ccc(N5CCN(C(=O)OC(C)(C)C)CC5)cc4)nc3c2)c1 [Compound 156]
IC50 [1]: 24 nM
BAF3-KDR (MIN IL3) 384 well pIC50 [2]: <5
BAF3-FGFR4 pIC50 [3]: 5.4

COc1cc(OC)cc(N(CCCNCC(F)(F)F)c2ccc3ncc(C(=O)NCCN4CCOCC4)nc3c2)c1 [Compound 158]
IC50 [1]: 537 nM
BAF3-KDR (MIN IL3) 384 well pIC50 [2]: <5
BAF3-FGFR4 pIC50 [3]: 5.1

COc1cc(OC)cc(N(CCNC(C)C)c2ccc3ncc(C(=O)NCCCN4CCN(C)CC4)nc3c2)c1 [Compound 159]
IC50 [1]: 155 nM
BAF3-KDR (MIN IL3) 384 well pIC50 [2]: <5
BAF3-FGFR4 pIC50 [3]: ~5.5

COc1cc(OC)cc(N(CCNC(C)C)c2ccc3ncc(C(=O)NCCN4CCOCC4)nc3c2)c1 [Compound 160]
IC50 [1]: 91.2 nM
BAF3-KDR (MIN IL3) 384 well pIC50 [2]: <5
BAF3-FGFR4 pIC50 [3]: 5.8

COc1cc(OC)cc(N(CCNC(C)C)c2ccc3ncc(NCC4CCNCC4)nc3c2)c1 [Compound 161]
IC50 [1]: 44.7 nM
BAF3-KDR (MIN IL3) 384 well pIC50 [2]: <5
BAF3-FGFR4 pIC50 [3]: <5
